Results from the NIST ThermoML archive (doi:10.1021/je401080p).
Numbers after ± are expanded uncertainties.

Experiments:
[1] = Liquid, Rate of evaporation
[2] = Boiling temperature at pressure P; conditions: 1.1 kPa, Liquid

**Q.** What does the source list for `CCCCCCCCCC(=O)OCC(O)CO` (stereo not drawn) [2,3-dihydroxypropyl decanoate]?
**A.** vapor or sublimation pressure ([1]; 478.69 K): 1.1 ± 0.2 kPa; vapor or sublimation pressure ([1]; 482.79 K): 1.5 ± 0.2 kPa; vapor or sublimation pressure ([1]; 491.77 K): 2.5 ± 0.3 kPa; vapor or sublimation pressure ([1]; 497.13 K): 3.1 ± 0.6 kPa; vapor or sublimation pressure ([1]; 498.31 K): 3.6 ± 0.4 kPa; vapor or sublimation pressure ([1]; 501.31 K): 4.3 ± 0.4 kPa; vapor or sublimation pressure ([1]; 511.21 K): 6.8 ± 0.7 kPa; vapor or sublimation pressure ([1]; 519.1 K): 10.1 ± 1 kPa; vapor or sublimation pressure ([1]; 524.41 K): 13.2 ± 1.2 kPa

**Q.** With `Cc1c(O)cc2c(c1C)O[C@](C)(CCC[C@H](C)CCC[C@H](C)CCCC(C)C)CC2` [(R,R,R)-γ-tocopherol] as the molecule, how does the “Boiling temperature at pressure P” value ([2]; DSC) read?
**A.** 274.70 ± 4.7 °C

**Q.** With `CCCCCCCCCC(=O)OCC(O)COC(=O)CCCCCCCCC` [2-hydroxypropane-1,3-diyl bis(decanoate)] as the molecule, how does the “vapor or sublimation pressure” value ([1]; 535.66 K) read?
**A.** 1 ± 0.1 kPa

**Q.** And the “vapor or sublimation pressure” value ([1]; 538.32 K)?
**A.** 1.1 ± 0.2 kPa

**Q.** And the “vapor or sublimation pressure” value ([1]; 544.06 K)?
**A.** 1.5 ± 0.2 kPa

**Q.** What about the “vapor or sublimation pressure” value ([1]; 554.25 K) of the same molecule?
**A.** 2.5 ± 0.2 kPa

**Q.** And the “vapor or sublimation pressure” value ([1]; 558.74 K)?
**A.** 3.1 ± 0.3 kPa

**Q.** And the “vapor or sublimation pressure” value ([1]; 562.37 K)?
**A.** 3.6 ± 0.4 kPa

**Q.** What about the “vapor or sublimation pressure” value ([1]; 565.39 K) of the same molecule?
**A.** 4.3 ± 0.5 kPa

**Q.** With `Cc1c(C)c2c(c(C)c1O)CC[C@@](C)(CCC[C@H](C)CCC[C@H](C)CCCC(C)C)O2` [(+)-α-tocopherol] as the molecule, how does the “Boiling temperature at pressure P” value ([2]; Rate of evaporation) read?
**A.** 276.11 ± 8.4 °C

**Q.** Which “vapor or sublimation pressure” value ([1]; 511.93 K) does the source give for `CCCCCCCC(=O)OCC(O)COC(=O)CCCCCCC` [glycerol 1,3-dicaprylate] here?
**A.** 1.1 ± 0.2 kPa

**Q.** What about the “vapor or sublimation pressure” value ([1]; 517.23 K) of the same molecule?
**A.** 1.5 ± 0.2 kPa

**Q.** What about the “vapor or sublimation pressure” value ([1]; 529.42 K) of the same molecule?
**A.** 2.5 ± 0.2 kPa

**Q.** And the “vapor or sublimation pressure” value ([1]; 533.36 K)?
**A.** 3.1 ± 0.3 kPa

**Q.** And the “vapor or sublimation pressure” value ([1]; 538.14 K)?
**A.** 3.6 ± 0.3 kPa

**Q.** And the “vapor or sublimation pressure” value ([1]; 541.18 K)?
**A.** 4.3 ± 0.4 kPa

**Q.** What about the “vapor or sublimation pressure” value ([1]; 552.59 K) of the same molecule?
**A.** 6.8 ± 0.5 kPa

**Q.** And the “vapor or sublimation pressure” value ([1]; 560.35 K)?
**A.** 10.1 ± 0.9 kPa

**Q.** And the “vapor or sublimation pressure” value ([1]; 567.73 K)?
**A.** 13.2 ± 1.2 kPa

**Q.** With `CCCCCCCC(=O)OCC(O)CO` (stereo not drawn) [2,3-dihydroxypropyl octanoate] as the molecule, how does the “vapor or sublimation pressure” value ([1]; 462.66 K) read?
**A.** 1.1 ± 0.1 kPa

**Q.** What about the “vapor or sublimation pressure” value ([1]; 468.91 K) of the same molecule?
**A.** 1.5 ± 0.2 kPa

**Q.** And the “vapor or sublimation pressure” value ([1]; 479.02 K)?
**A.** 2.5 ± 0.2 kPa

**Q.** And the “vapor or sublimation pressure” value ([1]; 484.24 K)?
**A.** 3.1 ± 0.4 kPa

**Q.** And the “vapor or sublimation pressure” value ([1]; 485.63 K)?
**A.** 3.6 ± 0.3 kPa

**Q.** What about the “vapor or sublimation pressure” value ([1]; 490.19 K) of the same molecule?
**A.** 4.3 ± 0.4 kPa

**Q.** And the “vapor or sublimation pressure” value ([1]; 498.91 K)?
**A.** 6.8 ± 0.6 kPa

**Q.** And the “vapor or sublimation pressure” value ([1]; 507.96 K)?
**A.** 10.1 ± 0.9 kPa

**Q.** What about the “vapor or sublimation pressure” value ([1]; 514.64 K) of the same molecule?
**A.** 13.2 ± 1.2 kPa

**Q.** With `Cc1cc(O)c(C)c2c1O[C@](C)(CCC[C@H](C)CCC[C@H](C)CCCC(C)C)CC2` [(R,R,R)-β-tocopherol] as the molecule, how does the “Boiling temperature at pressure P” value ([2]; DSC) read?
**A.** 279.58 ± 2.9 °C

**Q.** For `Cc1cc(O)cc2c1OC(C)(CCCC(C)CCCC(C)CCCC(C)C)CC2` (stereo not drawn) [ω-tocopherol], which “Boiling temperature at pressure P” value ([2]; DSC) is on record?
**A.** 279.5 ± 6.6 °C
